Experimental data taken from EP0378317A2, “Microbial transformation product of L-679,934” (Merck & Co., Inc., priority 1989, dated 1990).
Entries after “also recorded” stand apart in the source; their conditions may differ. Like-named read-outs stand apart in the source and are kept apart here.

Experiments:
mouse T lymphocytes = assay: T-cell proliferation assay (ionomycin plus PMA induced T-cell stimulation, tritiated thymidine uptake); format: cell-based; conditions: for IC50: read-out: IC₅₀
Experimental: The principle of this assay is to measure the proliferation of mouse T lymphocytes stimulated with the combination of ionomycin plus PMA. A positive sample in this assay will inhibit T-cell proliferation, as indicated by reduced tritiated thymidine uptake. […] Cells were pelleted by centrifugation at 1500 rpm for 8 minutes. Contaminating red cells were removed by treating the pellet with ammonium chloride lysing buffer (GIBCO) for 2 minutes at 4°C. Cold medium was added and cells were again centrifuged at 1500 rpm for 8 minutes. T lymphocytes were then isolated by separation of the cell suspension on nylon wool columns as follows: Nylon wool columns were prepared by packing approximately 4 grams of washed and dried nylon wool into 20 ml plastic syringes. The columns were sterilized by autoclaving at 250°F for 30 minutes. Nylon wool columns were wetted with warm (37°C) culture medium and rinsed with the same medium. Washed spleen cells resuspended in warm medium were slowly applied to the nylon wool. The columns were then incubated in an upright position at 37°C for 1 hour. Non-adherent T lymphocytes were eluted from the columns with warm culture medium and the cell suspensions were spun as above. […] The cell suspension was immediately distributed into 96 well flat-bottom microculture plates (Costar) at 200 µl/well. […] The proliferation of T lymphocytes was assessed by measurement of tritiated thymidine incorporation. After 44 hours of culturing, the cells were pulse-labelled with 2 µCi/well of tritiated thymidine (NEN, Cambridge, MA). After another 4 hours of incubation, cultures were harvested on glass fiber filters using a multiple sample harvester. Radioactivity of filter discs corresponding to individual wells was measured by standard liquid scintillation counting methods (Betacounter). Mean counts per minute of replicate wells were calculated and the results expressed as percent inhibition of tritiated thymidine uptake (proliferation) as follows: [formula]

[1] = Physical characteristics of the fermentation product; format: physicochemical; conditions: methanol
Source text: White amorphous powder • 2. […] Molecular weight of 789, as determined by FAB mass spectroscopy and is consistent with the assigned molecular structure in Figure 1.

SMILES | inhibition at 0.01 µg/mL (mouse T lymphocytes; Mus musculus, T-lymphocyte, 48 h) [%] | IC50 (mouse T lymphocytes; Mus musculus, T-lymphocyte, inhibition of T-cell proliferation, this experiment, same value in molar terms) [nM] | IC50 (mouse T lymphocytes; Mus musculus, T-lymphocyte, inhibition of T-cell proliferation, this experiment) [ng/mL] | IC50 (mouse T lymphocytes; Mus musculus, T-lymphocyte, range generally found) [nM] | inhibition at 0.00058 µg/mL (mouse T lymphocytes; Mus musculus, T-lymphocyte, L-683,519 0.58 ng/ml, harvest at 48 hours) [%] | inhibition at 0.00087 µg/mL (mouse T lymphocytes; Mus musculus, T-lymphocyte, L-683,519 0.87 ng/ml, harvest at 48 hours) [%] | inhibition at 0.0013 µg/mL (mouse T lymphocytes; Mus musculus, T-lymphocyte, L-683,519 1.3 ng/ml, harvest at 48 hours) [%] | inhibition at 0.0019 µg/mL (mouse T lymphocytes; Mus musculus, T-lymphocyte, L-683,519 1.9 ng/ml, harvest at 48 hours) [%] | inhibition at 0.0029 µg/mL (mouse T lymphocytes; Mus musculus, T-lymphocyte, L-683,519 2.9 ng/ml, harvest at 48 hours) [%] | inhibition at 0.0044 µg/mL (mouse T lymphocytes; Mus musculus, T-lymphocyte, L-683,519 4.4 ng/ml, harvest at 48 hours) [%] | inhibition at 0.0066 µg/mL (mouse T lymphocytes; Mus musculus, T-lymphocyte, L-683,519 6.6 ng/ml, harvest at 48 hours) [%] | inhibition at 0.0099 µg/mL (mouse T lymphocytes; Mus musculus, T-lymphocyte, L-683,519 9.9 ng/ml, harvest at 48 hours) [%] | inhibition at 0.015 µg/mL (mouse T lymphocytes; Mus musculus, T-lymphocyte, L-683,519 15.0 ng/ml, harvest at 48 hours) [%] | inhibition at 0.022 µg/mL (mouse T lymphocytes; Mus musculus, T-lymphocyte, L-683,519 22.0 ng/ml, harvest at 48 hours) [%] | inhibition at 0.033 µg/mL (mouse T lymphocytes; Mus musculus, T-lymphocyte, L-683,519 33.0 ng/ml, harvest at 48 hours) [%] | inhibition at 0.05 µg/mL (mouse T lymphocytes; Mus musculus, T-lymphocyte, L-683,519 50.0 ng/ml, ionomycin 250 ng/ml + PMA 10 ng/ml, ³H-thymidine pulse 4 hours, harvest at 48 hours) [%] | Inhibition of proliferation after addition of IL-2 (mouse T lymphocytes; addition of 50 units/ml. of recombinant human IL-2) | inhibition of T-cell activation (immunosuppressive activity) (mouse T lymphocytes; result in words) | Solubility [1]
C=CC[C@@H]1/C=C(\C)C[C@H](C)C[C@H](OC)[C@H]2O[C@@](O)(C(=O)C(=O)N3CCCC[C@H]3C(=O)O[C@H](/C(C)=C/[C@@H]3CC[C@@H](O)[C@H](OC)C3)[C@H](C)[C@@H](O)CC1=O)[C@H](C)C[C@@H]2OC [L-679,934] | 99 | – | – | – | – | – | – | – | – | – | – | – | – | – | – | – | – | – | –
C=CCC1C=C(C)CC(C)CC(OC)C(O)C2CC(C)C(O)(O2)C(=O)C(=O)N2CCCCC2C(=O)OC(C(C)=CC2CCC(O)C(OC)C2)C(C)C(O)CC1=O [L-683,519] | – | 2.2 | 1.7 | 2 to 4 | 0 | 0 | 30 | 57 | 81 | 93 | 97 | 99 | 99 | 99 | 99 | 99 | 4. Inhibition of proliferation was reversed by the addition of 50 units/ml. of recombinant human IL-2. | positive inhibition of T-cell activation; also recorded: positive immunosuppressive activity | Solubility in methanol
